Measured values reported in patent US6630477B1, “Therapeutic nucleoside compound” (SmithKline Beecham Corporation, priority 1999, dated 2003).

Tests used:
[1] = Cytotoxicity (reported with the Hepatitis B virus activity test); format: cell-based
Experimental: (§1) The activity of compounds against Hepatitis B Virus was assessed as described in Jansen, R. et al., Antimicrobial Agents and Chemotherapy, Vol. 37, No. 3, pp. 441-447, 1993.

Hepatitis B virus = assay: Hepatitis B Virus Activity (method of Jansen et al. 1993); format: cell-based; details: n=2, read-out: IC50 against Hepatitis B virus
Experimental: as §1

With `Nc1ncnc2c1ncn2[C@@H]1C=C[C@H](CO)C1` [(+)-(1R,4S)-4-(6-Amino-9H-purin-9-yl)-2-cyclopentene-1-methanol] the Cytotoxicity [1] was greater than 200 µM, the melting point was 195 to 200 °C and the IC50 (Hepatitis B virus) was 1000 nM.
